We go through 8 molecules from patent publication US20210255168A1, “A METHOD OF PRECISION CANCER THERAPY” (KING FAISAL SPECIALIST HOSPITAL & RESEARCH CENTRE, priority 2018, published 2021).

In assay [1] the test system is TNF-α-ARE luciferase reporter in MDA-MB-231 cells. Kind of assay: Post-transcriptional ARE luciferase reporter assay (kinase inhibitor library screen). The format is cell-based. Conditions: for reduction of ARE-reporter activity (in words): PK inhibitor library. From the text:
Reporters were designed to be driven by the ribosomal protein subunit 30 (RPS30) promoter. The promoter was amplified using PCR with primers specific to the flanking region of the RPS30 promoter sequence. The gene structure of RPS30 was obtained from the Ribosomal Protein Database (http://ribosome.med.miyazaki-u.ac.jp). The forward and reverse primers included the restriction sites, EcoR V and SalI sites. Amplified DNA fragments were then resolved in 1.2%-1.5% agarose gel and the amplicon bands were excised, purified and cloned into the promoterless plasmid. TNF-α 3′-UTR and TNF-α ARE were used to study the role of AU-rich elements in the action of PKs inhibitors. The AU-rich sequence that comprised 250 bases from TNF-α 3′UTR (1200-1450 bp, NM_00059) was amplified by PCR using the forward primer 5′-[…]-3′ (SEQ ID NO:1) and the reverse primer 5′-[…]-3′ (SEQ ID NO:2). The TNF-α-ARE sequence was made by annealing two synthetic complementary oligonucleotides of 70 bases that correspond to TNF-α ARE. The control reporter was constructed to have the basic structure of post-transcriptional reporter except 3′UTR which lack the AU-rich element sequence like this of bovine growth hormone. Any ARE reiterations or variations can be used, with minimal sequence is AUUUA, preferably, WW(AUUUA)WW, where W=A or U. They can be also repeated as an overall, e.g., AUUUAUUA, anywhere from 0 to 10 repeats as example.
Selleckchem Kinase Inhibitor Library that includes a selection of 378 pharmacologically active inhibitors of a number of protein kinases was purchased from Selleckchem. (Houston, Tex., USA). This library is a collection of 378 kinase inhibitors some of which have been approved by the FDA. Each compound is provided as a pre-dissolved 10 mM dimethyl sulfoxide (DMSO) solution as a 96 well format tube (100 μL). The compounds were diluted by OPTI-MEM (Thermo Fisher Scientific, Waltham, Mass., USA) to a final concentration of 5 μM.
Post-transcriptional and control reporter constructs were transfected to MDA-MB-231 cells separately that were seeded in 96-well microplates at a density of 4×10^4 cells/well and incubated overnight. Using lipofectamine 2000 protocol (Invitrogen, Carlsbad, Calif., USA), the cells were transfected with 10 ng of either RPS30-luciferase-control 3′UTR or RPS30-luciferase-ARE 3′UTR reporter plasmids. After 24 h, the cells were treated with each member of protein kinase inhibitors kit for 24 h. Then, luciferase reaction was performed as prescribed by manufacture's protocol (Nano-Glo Luciferase, Promega, Madison, Wis., USA)/well. After 15 minutes, the reporters' activities were measured through the measurement of the chemiluminescence (FIG. 8) after treatment using a Zenith 3100 (Anthos Labtec, Eugendorf, Austria).
Data are presented as means±standard error of the mean (SEM). Two-sample Student's t-test was used to determine the differences between two data sets. One-way analysis of variance (ANOVA) was used to compare three or more data columns. Two-way analysis of variance was used to analyze two groups of data, each having two data columns. Analysis was performed using GraphPad Prism version 6.00 for Windows, (GraphPad Software, La Jolla Calif., USA). For high throughput screening (HTS) hit selection (protein kinase inhibitors), strictly standardized mean difference (SSMD) test was used. This statistical test measures the size of effect of each member in a group relative to the other members. It is the mean of each member divided by the standard deviation of the difference between two random values from different groups. Based on the value of SSMD, the effect of each member of the library was classified as strong (β≥5), moderate (1≤β<5), and weak (β<1). In this study, only drug with SSMD score more than or equal to 5 or less than or equal to −5, i.e. strong β, where selected in the primary screening. […]
In general terms: A reporter such as luciferase makes a cellular process visible.

Assay [2] shares this test system. Described as above. The format is cell-based. As to conditions: 0.5, 2 and 5 μM, ARE and non-ARE reporters.
The subject of assay [3] is MDA-MB-231, MCF7, and SKBR3 cell lines. In words: mRNA expression in breast cancer cell lines. The format is cell-based. As to conditions: MCF7, MDA-MB-231 and SKBR3; most of the cancer cell lines. Here is the method:
Cells were cultured in six-well plates and either treated with DMSO or drugs for 24 h. Total RNA was then extracted using Trizol reagent (TRI Reagent, Sigma-Aldrich, St Louis, Mo.). The cells were lysed directly on the culture dish by adding 1 ml of the TRI Reagent per 10 cm^2 surface area. Reverse transcription for preparation of cDNA was performed using 3 μg of total RNA, 150 ng random primers, 0.1 M dithiothreitol (DTT), 10 mM deoxynucleotide triphosphate (dNTP) and 200 U of SuperScript II (Invitrogen, Foster City, Calif.). The quantitative RT-QPCR was performed in multiplex in the Chroma 4 DNA Engine cycler (BioRad, Hercules, Calif., USA) using FAM-labelled TaqMan probes (Applied Biosystems, Foster City, Calif., USA) for TTP (ZFP36), HuR (ELAVL1), uPA (PLAU)-CXCR4, MMP-1, MMP-13, IL-8, PLK-1 while a VIC-labelled glyceraldehyde-3-phosphate dehydrogenase (GAPDH) probe was used as the endogenous control. Samples were amplified in triplicate and quantification of relative expression was performed using the estimation of quantitation cycle (Cq) method.
PLK1 kinase, as an example of kinases involved in cancer, is over-expressed in breast cancer cell lines, including MCF7, MDA-MB-231 and SKBR3 when compared to the normal-like MCF10A (FIG. 5A). Many kinases are either over-expressed or constitutively active or hyperactive in cancer states when compared to normal cells. As example of inhibitors that are found in the precision cancer therapy screen, Volasertib and Regorafenib (VEGFR kinase inhibitor) led to reduction in the level of ARE-containing mRNA, uPA in most of the cancer cell lines. (FIG. 5B).
The present inventors further disclose that the effect of PLK-1 inhibition is consistent among different types of breast cancer including triple-negative, […], and ER-PR negative breast cancers, as shown through the actions induced by PLK-1 inhibitor volasertib on MDA-MB-231, MCF7, and SKBR3 cell lines, namely increasing the expression of TTP, decreasing the HuR level, and downregulating the TTP target uPA. […] Accordingly, the present inventor discloses that any protein kinase inhibitor which post-transcriptionally regulates expression of cancer-related genes is suitable for precision cancer therapy. Further disclosed is a method of treatment of cancer comprising administering said protein kinase inhibitor, to a patient in need thereof.

The next assay concerns the target PLK-2 (Homo sapiens, UniProt Q9NYY3). Conditions: cited from earlier work.
Another assay concerns the target PLK-3 (Homo sapiens, UniProt Q9H4B4). As to conditions: cited from earlier work.

Chain of PLK-2 (Q9NYY3 whole entry, species assumed): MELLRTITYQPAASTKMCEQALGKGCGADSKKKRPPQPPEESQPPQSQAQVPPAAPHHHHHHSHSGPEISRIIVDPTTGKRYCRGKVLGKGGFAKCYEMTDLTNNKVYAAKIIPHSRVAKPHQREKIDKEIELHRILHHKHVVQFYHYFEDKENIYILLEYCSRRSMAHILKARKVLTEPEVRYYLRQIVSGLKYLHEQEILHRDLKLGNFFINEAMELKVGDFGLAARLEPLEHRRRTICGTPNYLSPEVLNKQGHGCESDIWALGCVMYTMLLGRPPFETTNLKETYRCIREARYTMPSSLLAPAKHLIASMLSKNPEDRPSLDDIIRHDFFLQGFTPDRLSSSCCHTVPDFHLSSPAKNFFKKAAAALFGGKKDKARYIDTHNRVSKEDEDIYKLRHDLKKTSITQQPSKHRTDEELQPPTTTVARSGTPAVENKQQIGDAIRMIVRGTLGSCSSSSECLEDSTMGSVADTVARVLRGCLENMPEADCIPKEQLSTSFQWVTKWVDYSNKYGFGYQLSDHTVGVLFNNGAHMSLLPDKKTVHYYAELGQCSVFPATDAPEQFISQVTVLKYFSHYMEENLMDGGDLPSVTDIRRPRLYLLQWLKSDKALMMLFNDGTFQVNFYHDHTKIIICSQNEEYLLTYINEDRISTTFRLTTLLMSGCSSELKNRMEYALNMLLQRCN
Chain of PLK-3 (Q9H4B4 whole entry, species assumed): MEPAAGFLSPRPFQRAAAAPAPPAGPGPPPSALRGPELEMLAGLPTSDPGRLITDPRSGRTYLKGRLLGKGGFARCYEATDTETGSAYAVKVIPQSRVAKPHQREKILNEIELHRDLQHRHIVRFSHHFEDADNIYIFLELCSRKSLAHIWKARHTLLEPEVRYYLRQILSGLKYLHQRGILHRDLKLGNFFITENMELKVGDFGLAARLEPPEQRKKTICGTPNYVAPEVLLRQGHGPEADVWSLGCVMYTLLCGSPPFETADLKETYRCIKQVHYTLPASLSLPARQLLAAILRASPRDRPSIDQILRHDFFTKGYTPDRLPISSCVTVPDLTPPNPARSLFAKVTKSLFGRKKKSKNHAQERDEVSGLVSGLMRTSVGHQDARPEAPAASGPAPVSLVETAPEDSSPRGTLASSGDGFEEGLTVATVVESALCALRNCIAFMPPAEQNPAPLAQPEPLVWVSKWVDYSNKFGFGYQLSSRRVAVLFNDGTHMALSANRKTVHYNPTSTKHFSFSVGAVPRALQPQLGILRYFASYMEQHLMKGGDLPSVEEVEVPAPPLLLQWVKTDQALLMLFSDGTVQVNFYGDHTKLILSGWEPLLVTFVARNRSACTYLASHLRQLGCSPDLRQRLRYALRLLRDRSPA

For the molecule `CC[C@@H]1C(=O)N(C)c2cnc(Nc3ccc(C(=O)NC4CCN(C)CC4)cc3OC)nc2N1C1CCCC1` [BI 2536], the “reduction of TNF-ARE luciferase reporter activity” value in assay [1] (primary screening, 5 μM) came to 35%. In addition, the “reduction in percent reporter activity in the secondary screening compared to the control reporter” value in assay [1] (secondary screening, ARE vs non-ARE control reporter) is listed as 16%. As for `COc1ccc(S(=O)(=O)N(C(C)=O)c2ccccc2/C=C/c2cc[n+]([O-])cc2)cc1` [HMN-214], in assay [1], the “reduction of ARE-reporter activity (in words)” value (“reduction … (in words)” below) was “did not reduce”. Same read-out and setting: in the case of `C[C@@H](Oc1cc(-n2cnc3ccc(CN4CCN(C)CC4)cc32)sc1C(N)=O)c1ccccc1C(F)(F)F` [GSK461364] it was “did not reduce”. For the molecule `Cc1ccc(NC(=O)c2cccc(C(C)(C)C#N)c2)cc1Nc1ccc2ncn(C)c(=O)c2c1` [AZ628], in assay [2], the “ARE-dependent mRNA regulation confirmed in later stages of screening compared to a non-ARE reporter” value is given as “confirmed to be involved in ARE-dependent mRNA regulation”. As to `CNC(=O)c1cc(Oc2ccc(NC(=O)Nc3ccc(Cl)c(C(F)(F)F)c3)c(F)c2)ccn1` [Regorafenib], the “level of ARE-containing mRNA uPA in cancer cell lines” value in assay [3] is reported as “reduction”. Moreover, the “ARE-dependent mRNA regulation confirmed in later stages of screening compared to a non-ARE reporter” value in assay [2] is listed as “confirmed to be involved in ARE-dependent mRNA regulation”.

For the molecule `CN1CCN(c2ccc(OC(F)(F)F)c(Nc3ncc4c(n3)-c3c(c(C(N)=O)nn3CCO)CC4)c2)CC1` [NMS-P937], the “reduction … (in words)” value in assay [1] is “did not reduce”. On the same count and under the same terms, the result for Ro3280 reads “did not reduce”.

Regarding `COc1cc(OC)c(/C=C/S(=O)(=O)Cc2ccc(OC)c(NCC(=O)O)c2)c(OC)c1` [rigosertib], the “selectivity (PLK-1) against PLK-2” value at PLK-2 is given as “more than 30 fold”. Besides, in assay [1], the “reduction … (in words)” value was “did not reduce”. On PLK-3, the “activity on PLK-3” value was “no activity”.
